Source: patent EP0338372A2, “Solubilized pro-drugs” (AMERICAN CYANAMID COMPANY, priority 1988, dated 1989)

Test system: lymphocytic leukemia P388
Test: Lymphocytic leukemia P388 test
Format: in vivo, BDF1 mice
[1] = Dose 3.12 mg/kg intraperitoneally on days 1, 5 and 9
[2] = Dose 12.5 mg/kg intraperitoneally on days 1, 5 and 9
[3] = Dose 50 mg/kg intraperitoneally on days 1, 5 and 9
[4] = Dose 200 mg/kg intraperitoneally on days 1, 5 and 9
[5] = Dose 100 mg/kg intraperitoneally on days 1, 5 and 9
[6] = Dose 25 mg/kg intraperitoneally on days 1, 5 and 9
[7] = Dose 6.25 mg/kg intraperitoneally on days 1, 5 and 9
[8] = Dose 12.25 mg/kg intraperitoneally on days 1, 5 and 9

O=C(O)CCCC(=O)N1CCN=C1NN=Cc1c2ccccc2c(C=NNC2=NCCN2C(=O)CCCC(=O)O)c2ccccc12 [2,2-[9,10-Anthracenedlylbis(methylidyne-1-hydrazinyl-2-ylidene)]bis[4,5-dihydro-delta-oxo-1H-imidazole-1-pentanoic Acid]]
Median Survival [1]: 15.5 days
T/C x 100 % [1]: 141%
Median Survival [2]: 18 days
T/C x 100 % [2]: 164%
Median Survival [3]: 19 days
T/C x 100 % [3]: 173%
Median Survival [4]: 23 days
T/C x 100 % [4]: 209%

O=C(c1ccc2ccccc2c1)N1CCN=C1N(N=Cc1c2ccccc2c(C=NN(C(=O)c2ccc3ccccc3c2)C2=NCCN2C(=O)c2ccc3ccccc3c2)c2ccccc12)C(=O)c1ccc2ccccc2c1 [2,2'-(9,10-Anthracenediyldimethylidyne)bis[1-[4,5-dihydro-1-(2-naphthalenylcarbonyl)-1H-imidazol-2-yl]-hydrazide] of 2-naphthoic acid]
Median Survival [5]: 12 days
T/C x 100 % [5]: 104%

O=C(c1ccccc1F)N1CCN=C1N(N=Cc1c2ccccc2c(C=NN(C(=O)c2ccccc2F)C2=NCCN2C(=O)c2ccccc2F)c2ccccc12)C(=O)c1ccccc1F [2,2'-(9,10-Anthracenediyldimethylidyne)bis[1-[1-(2-fluorobenzoyl)-4,5-dihydro-1H-imidazol-2-yl] hydrazide] of 2-fluorobenzoic acid]
Median Survival [6]: 12 days
T/C x 100 % [6]: 109%
Median Survival [3]: 13 days
T/C x 100 % [3]: 118%
Median Survival [5]: 13 days
T/C x 100 % [5]: 118%
Median Survival [4]: 12 days
T/C x 100 % [4]: 109%

N#Cc1ccc(C(=O)N2CCN=C2N(N=Cc2c3ccccc3c(C=NN(C(=O)c3ccc(C#N)cc3)C3=NCCN3C(=O)c3ccc(C#N)cc3)c3ccccc23)C(=O)c2ccc(C#N)cc2)cc1 [2,2'-(9,10-Anthracenediyldimethylidyne)bis[1-[1-(4-cyanobenzoyl)-4,5-dihydro-1H-imidazol-2-yl] hydrazide] of 4-cyanobenzoic acid]
Median Survival [6]: 12 days
T/C x 100 % [6]: 109%
Median Survival [3]: 12.5 days
T/C x 100 % [3]: 114%
Median Survival [5]: 14.5 days
T/C x 100 % [5]: 132%
Median Survival [4]: 14.5 days
T/C x 100 % [4]: 132%

O=C(c1cccc([N+](=O)[O-])c1)N1CCN=C1N(N=Cc1c2ccccc2c(C=NN(C(=O)c2cccc([N+](=O)[O-])c2)C2=NCCN2C(=O)c2cccc([N+](=O)[O-])c2)c2ccccc12)C(=O)c1cccc([N+](=O)[O-])c1 [2,2'(9,10-Anthracenediyldimethylidyne)bis[1-[4,5-dihydro-1-(3-nitrobenzoyl)-1H-imidazol-2-yl]hydra-zide] of 3-nitrobenzoic acid]
Median Survival [1]: 16 days
T/C x 100 % [1]: 133%
Median Survival [7]: 16 days
T/C x 100 % [7]: 133%
Median Survival [2]: 13.5 days
T/C x 100 % [2]: 113%
Median Survival [6]: 18 days
T/C x 100 % [6]: 150%
Median Survival [3]: 16.5 days
T/C x 100 % [3]: 138%
Median Survival [5]: 18 days
T/C x 100 % [5]: 150%
Median Survival [4]: 21.5 days
T/C x 100 % [4]: 179%

O=CN1CCN=C1N(C=O)N=Cc1c2ccccc2c(C=NN(C=O)C2=NCCN2C=O)c2ccccc12 [2,2'-[9,10-Anthracenediylbis[methylidyne(1-formyl-1-hydrazinyl-2-ylidene)]]bis[4,5-dihydro-1H-imidazole-1-carboxaldehyde]]
Median Survival [2]: 10.5 days
T/C x 100 % [2]: 105%
Median Survival [3]: 11 days
T/C x 100 % [3]: 110%
Median Survival [4]: 11.5 days
T/C x 100 % [4]: 115%

[2-[[[10-[((4,5-Dihydro-1H-imidazol-2-yl)ethylhydrazono]methyl]-9-anthracenyl]methylene] hydrazino]-4,5-dihydro-1H-imidazol-1-yl]phosphonic Acid, Hydroiodide
Median Survival (mouse, in vivo, ip, 0.4 mg/kg): 18 days
T/C x 100 % (mouse, in vivo, ip, 0.4 mg/kg): 164%
Median Survival (mouse, in vivo, ip, 0.8 mg/kg): 21.5 days
T/C x 100 % (mouse, in vivo, ip, 0.8 mg/kg): 195%
Median Survival (mouse, in vivo, ip, 1.6 mg/kg): 18 days
T/C x 100 % (mouse, in vivo, ip, 1.6 mg/kg): 164%
Median Survival (mouse, in vivo, ip, 3.2 mg/kg): 22.5 days
T/C x 100 % (mouse, in vivo, ip, 3.2 mg/kg): 205%
Median Survival (mouse, in vivo, ip, 6.3 mg/kg): 24 days
T/C x 100 % (mouse, in vivo, ip, 6.3 mg/kg): 218%
Median Survival (mouse, in vivo, ip, 12.5 mg/kg): 25 days
T/C x 100 % (mouse, in vivo, ip, 12.5 mg/kg): 227%
Median Survival (mouse, in vivo, ip, 25 mg/kg): 25 days
T/C x 100 % (mouse, in vivo, ip, 25 mg/kg): 227%
Median Survival (mouse, in vivo, ip, 50 mg/kg): 25.5 days
T/C x 100 % (mouse, in vivo, ip, 50 mg/kg): 232%

[9,10-Anthracenedlylbis(methylidyne-1-hydrazinyl-2-ylidene (4,5-dihydro-1H-imidazol-2,1-diyl)]]-phosphonic Acid Hydroiodide
Median Survival (mouse, in vivo, ip, 0.4 mg/kg): 21 days
T/C x 100 % (mouse, in vivo, ip, 0.4 mg/kg): 191%
Median Survival (mouse, in vivo, ip, 0.8 mg/kg): 19 days
T/C x 100 % (mouse, in vivo, ip, 0.8 mg/kg): 173%
Median Survival (mouse, in vivo, ip, 1.6 mg/kg): 24.5 days
T/C x 100 % (mouse, in vivo, ip, 1.6 mg/kg): 223%
Median Survival (mouse, in vivo, ip, 3.2 mg/kg): 24 days
T/C x 100 % (mouse, in vivo, ip, 3.2 mg/kg): 218%
Median Survival (mouse, in vivo, ip, 6.3 mg/kg): 22 days
T/C x 100 % (mouse, in vivo, ip, 6.3 mg/kg): 200%
Median Survival (mouse, in vivo, ip, 12.5 mg/kg): 53.5 days
T/C x 100 % (mouse, in vivo, ip, 12.5 mg/kg): 486%
Median Survival (mouse, in vivo, ip, 25 mg/kg): >60 days
T/C x 100 % (mouse, in vivo, ip, 25 mg/kg): >545%

CC(C)(C)OC(=O)N1CCN=C1NN=Cc1c2ccccc2c(C=NNC2=NCCN2C(=O)OC(C)(C)C)c2ccccc12 [2,2-(9,10-Anthracenediylbis(methylidyne-1-hydrazinyl-2-ylidene)]bis[4,5-dihydro]-1H-imidazole-1-carboxylic Acid], Bis(1,1-dimethylethyl) Ester]
Median Survival [8]: 17.5 days
T/C x 100 % [8]: 152%
Median Survival [6]: 22 days
T/C x 100 % [6]: 191%
Median Survival [3]: 31.5 days
T/C x 100 % [3]: 274%

CC(=O)N1CCN=C1NN=Cc1c2ccccc2c(C=NNC2=NCCN2C(C)=O)c2ccccc12 [2,2'-[9,10-Anthracenediylbis(methylidyne-1-hydrazinyl-2-ylidene)]bis[1-acetyl-4,5-dihydro-1H-imidazole]
Median Survival [7]: 10.5 days
T/C x 100 % [7]: 105%
Median Survival [2]: 10.5 days
T/C x 100 % [2]: 105%
Median Survival [6]: 10.5 days
T/C x 100 % [6]: 105%
Median Survival [3]: 11 days
T/C x 100 % [3]: 110%

COc1ccc(C(=O)N2CCN=C2N(N=Cc2c3ccccc3c(C=NN(C(=O)c3ccc(OC)cc3)C3=NCCN3C(=O)c3ccc(OC)cc3)c3ccccc23)C(=O)c2ccc(OC)cc2)cc1 [2,2'-(9,10-Anthracenediyldimethylidyne)bis[1-[4,5-dihydro-1-(4-methoxybenzoyl)-1H-imidazol-2-yl] hydrazide] of 4-methoxybenzoic acid]
Median Survival [4]: 16 days
T/C x 100 % [4]: 139%

O=C(O)C1CCCCC1C(=O)N1CCN=C1NN=Cc1c2ccccc2c(C=NNC2=NCCN2C(=O)C2CCCCC2C(=O)O)c2ccccc12 (centres unmarked) [2,2-[9,10-Anthracenediylbis[methylidyne-1-hydrazinyl-2-ylidene(4,5-dihydro-1H-imidazole-2,1-diyl)-carbonyl]]biscyclohexanecarboxylic Acid]
Median Survival [7]: 13.5 days
T/C x 100 % [7]: 123%
Median Survival [2]: 16 days
T/C x 100 % [2]: 145%
Median Survival [6]: 18 days
T/C x 100 % [6]: 164%

O=CN1CCN=C1NN=Cc1c2ccccc2c(C=NNC2=NCCN2C=O)c2ccccc12 [2,2-[9,10-Anthracenediylbis(methylidyne-1-hydrazinyl-2-ylidene)]bis[4,5-dihydro]-1H-imidazole-1-carboxaldehyde]
Median Survival [3]: 12 days
T/C x 100 % [3]: 120%
Median Survival [4]: 12 days
T/C x 100 % [4]: 120%

O=C(c1c(F)c(F)c(F)c(F)c1F)N1CCN=C1N(N=Cc1c2ccccc2c(C=NN(C(=O)c2c(F)c(F)c(F)c(F)c2F)C2=NCCN2C(=O)c2c(F)c(F)c(F)c(F)c2F)c2ccccc12)C(=O)c1c(F)c(F)c(F)c(F)c1F [2,2'-(9,10-Anthracenediyldimethylidyne)bis[1-[4,5-dihydro-1-(pentafluoro-1H-imidazol-2-yl)hydra-zide] of pentafluorobenzoic acid]
Median Survival [4]: 12 days
T/C x 100 % [4]: 109%
